Experimental data as given in patent US20240058240A1, “COMPOUNDS AS SELF-TANNING SUBSTANCES AND TANNING COMPOSITIONS THEREOF” (CHEMCOM S.A., priority 2020, published 2024).

Tests used:
Assay type in all cases: cell-based
human skin explants [1] = assay: Melanogenesis in human skin living explants (Masson's Fontana staining, image analysis); conditions: for melanogenesis: compared with chronic UVA; for increase of melanin content in the basal layer of the epidermis (image analysis, stained surface): D6, explants phototype II, p<0.01
Procedure: (§1) Human skin explants of an average diameter of 12 mm (±1 mm) were prepared on an abdoplasty coming from a person (reference: P2237AB47—phototype II) or person (reference P2196-AB61, phototype III). The explants were kept in survival in BEM culture medium (BIO-EC's Explants Medium) at 37° C. in a humid, 5%-CO2 atmosphere.
(§2) The Ambermax was diluted in 0.1% ethanol at the following concentrations: 0.3 μM, 1 μM, 3 μM, 10 μM, 15 μM, 30 μM and 100 μM. The diluted solutions were stored at 4° C. during the study.
(§3) The explants were treated for 10 days with Ambermax (see products application below) or with no treatment.
(§4) On day 0 (DO), day 3 (D3), day 5 (D5), day 7 (D7) and day 10 (D10), the tested products (compounds for use in the invention) were 1) applied topically using a small spatula based on 2 μl per explant (2 mg per cm^2) at the indicated concentrations, 2) applied intradermatically by injections into the dermis using a syringe with 20 μL of product for each explant or 3) applied systemically by dilutions of the compound of invention in the culture media at the indicated concentration. […] The culture medium was half renewed (1 ml/well) on day 3, day 5, day 7 and day 10.
(§5) On day 0 (D0), D2, D3, D6, and D8, the tested products (compounds for use in the invention) were applied topically using a small spatula on the basis of 2 μl per explant (2 mg per cm^2). […] The culture medium was half renewed (1 ml/well) on D2, D3, D6 and D8.
(§6) After fixation for 24 hours in buffered formalin solution, the samples were dehydrated and impregnated in paraffin using a Leica PEARL dehydration automat. The samples were then paraffin-embedded using a Leica EG 1160 embedding station. 5-μm-thick sections of paraffin-embedded formol fixed sections were realized using a Leica RM 2125 Minot-type microtome, and the sections were then mounted on Superfrost® Plus glass slides. Microscopical observations were realized using a Leica DMLB, a BX43 or BX63 Olympus microscope. Pictures were digitized with an Olympus DP72 or DP74 camera and the Cell^D or cellSens data storing software.
Melanin was visualized after silver impregnation according to Masson's Fontana staining method on formalin-fixed paraffin-embedded (FFPE) skin sections. The staining was assessed by microscopical observation and image analysis of specific batches. Concerned batches: T0, (TUV, P1→P10) on D5 or D6 and D10.
The images analyses were performed on all the images of each batch, according to the following method using Cell^D or cellSens software:
For each batch of explants, the percentage of the region of interest covered by the staining (stained surface percentage) is determined by image analysis according to the previously described process.
Stained surfaces comparisons: the stained surface percentage (Surf %) for each treatment is compared to the untreated condition=>P vs T. The same comparisons are made for the induced batches with or without treatment=>T vs TUV.
(§7) The effects ex vivo was shown by treating human biopsies for 10 days (human living explants: 12 mm+/−1, donor, skin type III) with a systemic application, intradermic injections or a topical application of compounds according to embodiments of the invention (Ambermax). Concentrations of 1, 5 and 10 μM of this compound were used for systemic application and intradermic injections on the human explants. For topical application, biopsies were treated with 10, 30, and 100 μM of Ambermax. As control, non-treated explants or/and explants exposed to chronic UVA-irradiations were used as described in the experimental procedures.

human skin explants [2] = assay: Cellular viability of human skin living explants (Masson's trichrome, Goldner variant)
Procedure: as §1, §2, §3, §4, §5, §6
The cell viability of epidermal and papillary dermal structures was observed on formalin-fixed paraffin-embedded (FFPE) skin sections after Masson's trichrome staining, Goldner variant. The cell viability was assessed by microscopical observation. Concerned batches: T0, (TUV, P1→P10) on D5 or D6 and D10.
as §7

human skin explants [3] = assay: Melanogenesis in human skin living explants (Masson's Fontana staining, image analysis); conditions: systemic treatment, 3 and 5 μM, after 5 days, compared with chronic UVA
[4] = test system: Normal Human Epidermal Melanocytes moderately pigmented (NHEMs-MP); assay: Melanin content (pigmentation) of NHEMs-MP in culture; conditions: 3.16 μM, 4 days, NHEMs-MP, in comparison with DOPA (50 μM)
Procedure: This primary culture was cultivated in medium M254 supplemented (LIFE TECHNOLOGIES; ref:M-254-500) with HMGS (human melanocyte growth supplement; LIFE TECHNOLOGIES; ref: S-002-5) and gentamycin (LIFE TECHNOLOGIES; ref:15710-049) and maintained in a humidified incubator at 37° C. with a 5% CO2 atmosphere. For experiments (see below), cells were seeded at a density of 9×10^4 cells/well (100 μL/well) and cultured at 37° C. under a 5% CO2.
The NHEMs-MP were treated for 4 days, with a medium refresh after 2 days of treatment—Amberketal, Ambermax and with the reference molecule (L-DOPA)—when the culture media are collected and stored at −80° C. as shown in FIG. 2. At the end of the treatments, the culture media were collected a second time, pooled with the media collected at day 2 and centrifuged for 30 minutes (14000 rpm). The pellet obtained after centrifugation and NHEMs-MP treated cells were lysed in 150 μl of a NaOH 1M solution. 5 μl of each cell lysate were used for protein quantification using BCA protein assay. The remaining 145 μl of the lysates were heated at 80° C. during 1 h. The optical density was measured at 490 nm and the melanin content was determined by comparison with a standard curve of synthetic melanin and reported to the quantity of protein present in each cell well tested.
The effects of these 2 compounds, namely Ambermax and Amberketal, on the melanin production were evaluated as described above. Based on MTS results, moderately pigmented (MP) NHEMs were treated with these 2 compounds at one concentration (100 μM for Amberketal and 3.16 μM for Ambermax) for 4 days. In parallel, cell cultures were also treated with Ethanol 0.1%, a concentration corresponding to the test compounds solvent, and with a known modulator of pigmentation (L-DOPA 50 μM). […] At the end of the treatments (D4), cells were lysed, the melanin content was quantified by spectrophotometry and normalized to the amount of proteins. Extracellular melanin was also evaluated by the same methodology after centrifugation of the culture media.

Ambermax [Compound 16]
enhancement of melanogenesis (microscopical observation and semi-quantification of melanin staining) (human skin explants [1]; FFPE skin sections, without UVs exposure): very effective to enhance melanogenesis without UVs exposure | most effective concentration (melanogenesis) (human skin explants [1]; intradermal injection for 10 days): 1 µM | melanogenesis (human skin explants [1]; intradermal injection, 1 μM and 10 μM, after 5 days): increase of melanogenesis slightly weaker than that achieved with chronic UVA | melanin content present in the basal layer in skin explants (human skin explants [1]; second batch of explants, phototype II, topical): induced an increase of the melanin content present in the basal layer | most efficient concentration to stimulate melanin synthesis (human skin explants [1]; systemic treatment, day 10): 1 µM | increase of melanin content in the basal layer of the epidermis (image analysis, stained surface) (human skin explants [1]; topical 10 μM): 152% | increase of melanin content in the basal layer of the epidermis (image analysis, stained surface) (human skin explants [1]; topical 15 μM): 160% | melanogenesis (human skin explants [1]; topical treatment, 10 μM, 30 μM and 100 μM, 10 days): moderate melanogenesis induction, slightly lower than that obtained with of chronic UVA | melanogenesis (human skin explants [1]; topical treatment, 10 μM, 5 days): increase in melanogenesis comparable to that obtained with chronic UVA irradiation | explant toxicity (human skin explants [2]; 0.3-100 μM, 3 different ways of application): doesn't induce explant toxicity | explant viability (human skin explants [2]; D5 and D10, 3 concentrations, 3 methods of application (topical, systemic, intradermal), skin type III): no significant alterations of explant viability | explant alterations (human skin explants [2]; application of 100 μM, D10): very slight alterations | alteration of the papillary dermis (human skin explants [2]; topical administration, 100 μM): no modification of the papillary dermis | explant viability in the epidermis (macroscopic evaluation) (human skin explants [2]; topical administration, 100 μM): very slight decrease in the viability | melanogenesis (human skin explants [3]): rise of melanogenesis equivalent to the one obtained with a chronic UVA irradiation | increase of melanin present in the media (extracellular) ([4]; p<0.01, n=10): +123% | increase of intracellular melanin content ([4]; p<0.01, n=12): +46%
